From patent publication US11472771B2, “Process for making amino diaryl ethers and amino diaryl ethers hydrochloride salts” (CELLESTIA BIOTECH AG, priority 2018, dated 2022)

Tests used:
Type in all cases: physicochemical
[1] = Stability study, storage 5° C.
Description: For 6-(4-(tert-butyl)phenoxy)pyridin-3-amine monohydrochloride two different types of stability studies were performed including short-term and long-term stability studies, respectively, […] In terms of analytical determinations six tests were involved including appearance, assay free base mean and purity mean, water, IR and XRPD. Appearance was determined by visual inspection. The product should be a white or off-white powder. Water content was determined according to USP <921> coulometric method. Identification of 6-(4-(tert-butyl)phenoxy)pyridin-3-amine monohydrochloride by IR spectroscopy was done according to USP <197>, comparing the spectrum obtained to that of the reference standard. X-Ray powder diffraction (XRPD) was performed according to USP <941> against the reference XRPD spectrum. Purity and assay of free base was done by HPLC-UV. Two methods were used. Mobile phases in the first method were water and acetonitrile. Mobile phases in the second method were water (0.5 mL of trifluoroacetic acid was added to 1000 mL of water) and acetonitrile (0.4 mL of trifluoroacetic acid was added to 1000 mL of acetonitrile). Equipment and chromatographic conditions for identification and determination of purity and assay of the 6-(4-(tert-butyl)phenoxy)pyridin-3-amine monohydrochloride by HPLC-UV according to the first method and the second method, respectively, are shown in Tables 5 and 6. [table] [table]

[2] = Accelerated stability study, storage 40° C., 75% rh; settings: 6 months stability studies
Description: For 6-(4-(tert-butyl)phenoxy)pyridin-3-amine monohydrochloride two different types of stability studies were performed including short-term and long-term stability studies, respectively, at 25° C. (RH, 60%), −5° C. and −20° C. for 36 months and an accelerated study at 40° C. (RH, 75%) over 6 months. In terms of analytical determinations six tests were involved including appearance, assay free base mean and purity mean, water, IR and XRPD. Appearance was determined by visual inspection. The product should be a white or off-white powder. Water content was determined according to USP <921> coulometric method. Identification of 6-(4-(tert-butyl)phenoxy)pyridin-3-amine monohydrochloride by IR spectroscopy was done according to USP <197>, comparing the spectrum obtained to that of the reference standard. X-Ray powder diffraction (XRPD) was performed according to USP <941> against the reference XRPD spectrum. Purity and assay of free base was done by HPLC-UV. Two methods were used. Mobile phases in the first method were water and acetonitrile. Mobile phases in the second method were water (0.5 mL of trifluoroacetic acid was added to 1000 mL of water) and acetonitrile (0.4 mL of trifluoroacetic acid was added to 1000 mL of acetonitrile). Equipment and chromatographic conditions for identification and determination of purity and assay of the 6-(4-(tert-butyl)phenoxy)pyridin-3-amine monohydrochloride by HPLC-UV according to the first method and the second method, respectively, are shown in Tables 5 and 6. [table] [table]

[3] = Forced degradation: solid state stressed by UV/VIS radiation
Description: Instrumentation: • Light stability chamber: Solarbox 1500e • Oven: Salvis Vacuum drying oven VC-20 • Heating unit: Ikamag RET-GS with IKA ETS SD and stainless steel heating block • Vials: Supelco V-Vials and screw caps with PTFE septa • Gas tight vials: Agilent 10 mL HS-GC clear glass vials and crimp caps with Not applicable PTFE septa • Quartz glass cuvette: Hellma precision cuvette Suprasil, Type 117.100-QS, 10 mm path length, screw capped with silicone septa • HPLC: As described above
The HPLC test method described above was used to determine the assay and purity of 6-(4-(tert-butyl)phenoxy)pyridin-3-amine monohydrochloride before the forced degradation experiments and the area % content of individual impurities and degradation products in the 6-(4-(tert-butyl)phenoxy)pyridin-3-amine monohydrochloride samples obtained from the degradation experiments.
The assay and the purity of 6-(4-(tert-butyl)phenoxy)pyridin-3-amine monohydrochloride were determined using HPLC with UV detection at 220 nm utilizing the area normalization methodology for purity determination and external standard calibration for assay determination. During all experiments the UV spectra from 200 nm to 950 nm have been recorded and also the peak purity of 6-(4-(tert-butyl)phenoxy)pyridin-3-amine monohydrochloride was assessed.
Two samples of 20.23 mg and 20.17 mg of 6-(4-(tert-butyl)phenoxy)pyridin-3-amine monohydrochloride were weighed each into a quartz glass cuvette. Both cuvettes were closed with the screw cap. One of the cuvettes was protected by wrapping it in aluminium foil. This sample served as dark control. Both cuvettes were placed alongside each other in the light stability chamber and were then exposed in accordance to guideline to UV/VIS radiation applying energy of 500 W/m^2 until a total illumination of 1200 kLux·h was reached. After exposure to the UV/VIS radiation for an illumination of 1200 kLux·h the sample was brought to room temperature and the content of the cuvette was dissolved in about 2 mL of the sample solvent (acetonitrile/water 3:1 v/v). The obtained solution was quantitatively transferred into a 25 mL volumetric flask. Then the cuvette was rinsed five times with about 2 mL sample solvent, whereupon each time the content of the cuvette was also transferred into the 25 mL volumetric flask. After the flask was filled up to volume with the sample solvent and was shaken well, an aliquot of this solution was transferred into a HPLC vial for analysis. Result: In solid state 6-(4-(tert-butyl)phenoxy)pyridin-3-amine monohydrochloride is stable against UV/VIS radiation. After an illumination of 1200 kLux·h, applying an energy of 500 W/m^2, the purity decreased by 0.6 area % which was mainly related to the occurrence of two unknown impurities.

[4] = 6 months stability studies, 55° C., 3 mths
[5] = 6 months stability studies, 55° C., 6 mths
[6] = 6 months stability studies, 55° C., Release data
[7] = 36 months stability studies, 5° C., 6 mths
[8] = 36 months stability studies, 5° C., 9 mths
[9] = 36 months stability studies, 5° C., 12 mths
[10] = 36 months stability studies, 5° C., 18 mths
[11] = 36 months stability studies, 5° C., 24 mths
[12] = solid state, illumination of 1200 kLux·h, 500 W/m^2

CC(C)(C)c1ccc(Oc2ccc(N)cn2)cc1.Cl [6-(4-(tert-butyl)phenoxy)pyridin-3-amine monohydrochloride]
Assay free base, mean [1, 4]: 87.2 % m/m | IR, conforms to reference [1, 4]: complies | Purity, mean [1, 4]: 99 % area | Water [1, 4]: 0.02 % m/m | Assay free base, mean [1, 5]: 87.6 % m/m | IR, conforms to reference [1, 5]: complies | Purity, mean [1, 5]: 99 % area | Water [1, 5]: 0.02 % m/m | Assay free base, mean [1, 6]: 89.4 % m/m | IR, conforms to reference [1, 6]: complies | Purity, mean [1, 6]: 100.0 % area | Water [1, 6]: 0.01 % m/m | Water ([1]; 36 months stability studies, 5° C., 3 mths): 0.02 % m/m | Assay free base, mean [1, 7]: 87.5 % m/m | Purity, mean [1, 7]: 100.0 % area | Water [1, 7]: 0.02 % m/m | Assay free base, mean [1, 8]: 89.6 % m/m | Purity, mean [1, 8]: 100.0 % area | Water [1, 8]: 0.03 % m/m | Assay free base, mean [1, 9]: 87.3 % m/m | Purity, mean [1, 9]: 100.0 % area | Water [1, 9]: 0.02 % m/m | Assay free base, mean [1, 10]: 87.0 % m/m | Purity, mean [1, 10]: 100.0 % area | Water [1, 10]: 0.01 % m/m | Assay free base, mean [1, 11]: 88.3 % m/m | Purity, mean [1, 11]: 100.0 % area | Water [1, 11]: 0.02 % m/m | Water ([1]; 36 months stability studies, 5° C., Release data): 0.01 % m/m | Assay free base, mean ([2]; 3 mths): 89.2 % m/m | IR, conforms to reference ([2]; 3 mths): complies | Purity, mean ([2]; 3 mths): 99.6 % area | Water ([2]; 3 mths): 0.01 % m/m | Assay free base, mean ([2]; 6 mths): 87.4 % m/m | IR, conforms to reference ([2]; 6 mths): complies | Purity, mean ([2]; 6 mths): 98.9 % area | Water ([2]; 6 mths): 0.02 % m/m | XRPD, conforms to reference ([2]; 6 mths): complies | Assay free base, mean ([2]; Release data): 87.0 % m/m | IR, conforms to reference ([2]; Release data): complies | Purity, mean ([2]; Release data): 99.2 % area | Water ([2]; Release data): 0.02 % m/m | decrease in the assay ([3]; dark control (cuvette wrapped in aluminium foil) in the light stability chamber): 2.4 % w/w | stability against UV/VIS radiation ([3]; solid state): stable | decrease in the assay [3, 12]: 2.1 % w/w | purity decrease [3, 12]: 0.6 area %
